Data set [1] addresses T1, LdtMt2 (Mycobacterium tuberculosis, UniProt I6Y9J2). Briefly: biochemical.
The target in data set [2] is T1, LdtMt2. The format is binding.
The conditions of data set [3]: for kchem (kinetic rate constant for reactivity with GSH): 500 nM L-glutathione, 10 µM Probe 1, pH 7.2; for half-life (t1/2) of reaction with GSH: buffer.
Data set [4] concerns the target T1, LdtMt2. The data set can be described thus: biochemical. The following applies: for IC50: read-out: pIC50 LdtMt2 (converted).
[5] abbreviates: 1 µM LdtMt2, inhibitor 20 µM (100 µM for 12), rt, 15 min.
The mark [6] stands for this setting: 1 µM LdtMt2, inhibitor 20 µM (100 µM for 12), rt, 24 h.

Several values for one entry are separate records, joined by “and”; a condition that tells them apart may be missing. Equal values may be shown once. Read-outs that look alike come from different tables or passages of the source.

From article PMC10601815, “αβ,α′β′-Diepoxyketones are mechanism-based inhibitors of nucleophilic cysteine enzymes” (Chemical Communications (Cambridge, England), 2023) come the findings set out here.

T1 sequence (I6Y9J2 56-408): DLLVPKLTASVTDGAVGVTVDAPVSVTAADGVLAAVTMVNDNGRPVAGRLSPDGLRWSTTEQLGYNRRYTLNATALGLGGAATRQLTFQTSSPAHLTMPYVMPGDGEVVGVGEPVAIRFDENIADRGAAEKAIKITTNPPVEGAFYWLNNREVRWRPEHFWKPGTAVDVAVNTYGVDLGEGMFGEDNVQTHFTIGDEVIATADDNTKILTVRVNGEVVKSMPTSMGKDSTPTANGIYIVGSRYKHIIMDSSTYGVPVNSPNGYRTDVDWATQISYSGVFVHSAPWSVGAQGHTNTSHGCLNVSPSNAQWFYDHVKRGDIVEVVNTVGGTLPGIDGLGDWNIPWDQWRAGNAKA

Regarding `COc1ccccc1C1OC1C(=O)C1OC1c1ccccc1OC` (mixture of isomers) [DEK 5], the “kinact/KI LdtMt2” value on LdtMt2 [1] is 61.1 ± 2.78 M⁻¹ s⁻¹. Further, at LdtMt2 [2], the “Area (%) 15 min, adduct with assignment N.D. (+309 Da for 5, +80 Da for 8 and 9)” value (“Area (%) 15 min, adduct” for short) came to 0.0%; the “Area (%) 15 min, assignment Dha (-34 Da)” value is listed as 0.0%; the “Area (%) 15 min, assignment Retro-aldol fragment (3)” value (from here on “Area (%) 15 min … (3)”) amounted to 9.0%; the “Area (%) 15 min, assignment Unassigned fragment / Fragment II (+56/+57 Da)” value was 0.0%. In addition, at LdtMt2 [2], the “Area (%) 15 min, assignment Unfragmented (2)” value (“Area (%) 15 min … (2)” below) turned out to be 77.9%; the “Area (%) 15 min, assignment Unmodified LdtMt2” value is recorded as 2.5%; the “Area (%) 24 h, adduct with assignment N.D. (+309 Da for 5, +80 Da for 8 and 9)” value (shortened to “Area (%) 24 h, adduct”) is on record as 4.22%; the “Area (%) 24 h, assignment Dha (-34 Da)” value was ~30% and 30.4%. Besides, on LdtMt2 [2], the “Area (%) 24 h, assignment Retro-aldol fragment (3)” value (“Area (%) 24 h … (3)” for short) is given as 39.6%; the “Area (%) 24 h, assignment Unfragmented (2)” value (from here on “Area (%) 24 h … (2)”) turned out to be 0.0%; the “Area (%) 24 h, assignment Unmodified LdtMt2” value was 0.0%. Also, in data set [3], the “kchem (kinetic rate constant for reactivity with GSH)” value (from here on “kchem”) was under 0.8 M⁻¹ s⁻¹.
`Cc1cccc(C)c1C1OC1C(=O)C1OC1c1c(C)cccc1C` (mixture of isomers) [DEK 8]: on LdtMt2 [1], the “inhibition of LdtMt2 in the kinact/KI determination (in words)” value is “no evidence for inhibition” and the “kinact/KI LdtMt2” value is under 10.0 M⁻¹ s⁻¹. For the same compound, at LdtMt2 [2], the “Area (%) 15 min, adduct” value worked out at 0.0%; the “Area (%) 15 min … (3)” value worked out at 0.0%; the “Area (%) 15 min, assignment Unmodified LdtMt2” value amounted to 100.0%; the “Area (%) 24 h, adduct” value turned out to be 14.9%. Further, at LdtMt2 [2], the “Area (%) 24 h … (3)” value amounted to 16.3% and the “Area (%) 24 h, assignment Unmodified LdtMt2” value came to 68.8%. For the same compound, in data set [3], the “kchem” value is 1.11 ± 0.20 M⁻¹ s⁻¹ and 1.1 ± 0.2 M⁻¹ s⁻¹; the “half-life (t1/2) of reaction with GSH” value is 38 min.
`O=C(C1OC1c1ccccc1)C1OC1c1ccccc1` (mixture of isomers) [diastereomeric mixture of 1]: the “pIC50 LdtMt2” value on LdtMt2 [4] is 5.59 ± 0.036 and 5.6 ± 0.04.
In the case of `O=C(c1ccccc1)C1OC1c1ccccc1` (racemic) [Epoxide 12, reference compound], at LdtMt2 [2], the “Area (%) 15 min … (3)” value worked out at 0.0%; the “Area (%) 15 min … (2)” value came to 8.6%; the “Area (%) 15 min, assignment Unmodified LdtMt2” value was found to be 91.4%; the “Area (%) 24 h … (3)” value was 87.2%. For the same compound, on LdtMt2 [2], the “Area (%) 24 h … (2)” value stood at 0.0%; the “Area (%) 24 h, assignment Unmodified LdtMt2” value is 12.8%; the “covalent reaction with LdtMt2 (in words)” value is on record as “evidenced covalent reaction”. At LdtMt2 [4], the “inhibition of LdtMt2 in dose-response assays (in words)” value is listed as “did not manifest inhibition” and the “pIC50 LdtMt2” value is on record as under 4.4.
Turning to `Cc1cc(C)cc([C@@H]2O[C@H]2C(=O)[C@@H]2O[C@H]2c2cc(C)cc(C)c2)c1` (relative stereo) [DEK 7], on LdtMt2 [1], the “kinact/KI LdtMt2” value turned out to be 80.9 ± 6.74 M⁻¹ s⁻¹. On LdtMt2 [2], the “Area (%) 15 min, assignment Dha (-34 Da)” value was 0.0%; the “Area (%) 15 min … (3)” value came out at 43.7%; the “Area (%) 15 min, assignment Unassigned fragment / Fragment II (+56/+57 Da)” value is reported as 0.0%; the “Area (%) 15 min … (2)” value worked out at 44.8%. On LdtMt2 [2], the “Area (%) 15 min, assignment Unmodified LdtMt2” value was 11.5%; the “Area (%) 24 h, assignment Dha (-34 Da)” value is ~16% and 16.2%; the “Area (%) 24 h … (3)” value amounted to 70.3%; the “Area (%) 24 h … (2)” value came to 0.0%. The “Area (%) 24 h, assignment Unmodified LdtMt2” value at LdtMt2 [2] worked out at 0.0%. In data set [3], the “kchem” value was 1.71 ± 0.24 M⁻¹ s⁻¹ and 1.7 ± 0.2 M⁻¹ s⁻¹; the “half-life (t1/2) of reaction with GSH” value came to 24 min.
`O=C([C@H]1O[C@@H]1c1ccccc1)[C@@H]1O[C@H]1c1ccccc1` [DEK 1]: at LdtMt2 [1] (100 nM LdtMt2, 10 µM Probe 1, 3.5 h), the kinact/KI (usually the second-order rate constant of inactivation) was found to be 484 ± 28.4 M⁻¹ s⁻¹. Besides, on LdtMt2 [2] (setting [5]), the “Area (%) 15 min, assignment Dha (-34 Da)” value worked out at 0.0%; the “Area (%) 15 min … (3)” value amounted to 23.3%; the “Area (%) 15 min … (2)” value is listed as 74.7%; the “Area (%) 15 min, assignment Unmodified LdtMt2” value is on record as 2.0%. At LdtMt2 [2] (setting [6]), the “Area (%) 24 h, assignment Dha (-34 Da)” value was ~5% and 5.0%; the “Area (%) 24 h … (3)” value is 82.0%; the “Area (%) 24 h … (2)” value came to 7.2%; the “Area (%) 24 h, assignment Unmodified LdtMt2” value was 0.0%. Besides, at LdtMt2 [2] (1 µM LdtMt2, inhibitor 20 µM, rt, 15 min), the “Area (%) 15 min, assignment Unassigned fragment / Fragment II (+56/+57 Da)” value was 0.0%. For the same compound, on LdtMt2 [2] (1 µM LdtMt2, inhibitor 20 µM (100 µM for 12)), the “covalent reaction with LdtMt2 (in words)” value is “covalently reacts with LdtMt2”. Also, the “time for conversion of the initial adduct (2, +267 Da) into the +160 Da adduct (3)” value on LdtMt2 [2] (1 (20 µM), LdtMt2 (1 µM)) was at most 2 h. Also, on LdtMt2 [4] (15 min preincubation, 100 nM LdtMt2, 25 µM Probe 1, n=4), the IC50 is 617 nM and 631 nM. For the same compound, at LdtMt2 [4] (30 min pre-incubation), the IC50 is 63.1 nM. Further, the IC50 on LdtMt2 [4] (Table S3, 10 min pre-incubation, 100 nM LdtMt2, 25 µM Probe 1) is 1000 nM. In addition, in data set [3], the “kchem” value was under 0.8 M⁻¹ s⁻¹.
`O=C(C1OC1c1ccc(OC(F)(F)F)cc1)C1OC1c1ccc(OC(F)(F)F)cc1` (stereo not shown) [DEK 4]: at LdtMt2 [1], the “inhibition of LdtMt2 in the kinact/KI determination (in words)” value is “no evidence for inhibition” and the “kinact/KI LdtMt2” value was under 10.0 M⁻¹ s⁻¹. Further, on LdtMt2 [2], the “Area (%) 15 min, assignment Dha (-34 Da)” value is 0.0%; the “Area (%) 15 min … (3)” value amounted to 18.1%; the “Area (%) 15 min … (2)” value turned out to be 5.41%; the “Area (%) 15 min, assignment Unmodified LdtMt2” value amounted to 76.5%. On LdtMt2 [2], the “Area (%) 24 h, assignment Dha (-34 Da)” value was ~2.5% and 2.4%; the “Area (%) 24 h … (3)” value is reported as 97.6%; the “Area (%) 24 h … (2)” value was 0.0%; the “Area (%) 24 h, assignment Unmodified LdtMt2” value was found to be 0.0%. For the same compound, in data set [3], the “kchem” value was under 0.8 M⁻¹ s⁻¹.
In the case of `O=C(C1OC1c1ccccc1OC(F)(F)F)C1OC1c1ccccc1OC(F)(F)F` (stereo not shown) [DEK 6], the “kinact/KI LdtMt2” value at LdtMt2 [1] came to 140.6 ± 17.1 M⁻¹ s⁻¹. At LdtMt2 [2], the “Area (%) 15 min … (3)” value was 11.6%; the “Area (%) 15 min, assignment Unassigned fragment / Fragment II (+56/+57 Da)” value is listed as 0.0%; the “Area (%) 15 min … (2)” value was found to be 81.2%; the “Area (%) 15 min, assignment Unmodified LdtMt2” value was found to be 7.2%. For the same compound, on LdtMt2 [2], the “Area (%) 24 h, assignment Dha (-34 Da)” value is reported as “no evidence for Dha formation”; the “Area (%) 24 h … (3)” value is 93.2%; the “Area (%) 24 h … (2)” value is 0.0%; the “Area (%) 24 h, assignment Unmodified LdtMt2” value came to 2.6%. Besides, the “kchem” value in data set [3] was under 0.8 M⁻¹ s⁻¹.
Regarding `O=C1C2(CCC13OC3c1ccccc1)OC2c1ccccc1` (stereo not shown) [DEK 9], the “kinact/KI LdtMt2” value on LdtMt2 [1] stood at 25.8 ± 1.41 M⁻¹ s⁻¹. Further, on LdtMt2 [2], the “Area (%) 15 min, adduct” value is 6.9%; the “Area (%) 15 min … (3)” value is recorded as 68.8%; the “Area (%) 15 min … (2)” value was determined as 21.0%; the “Area (%) 15 min, assignment Unmodified LdtMt2” value was 3.3%. In addition, on LdtMt2 [2], the “Area (%) 24 h, adduct” value was 9.1%; the “Area (%) 24 h … (3)” value came to 90.9%; the “Area (%) 24 h … (2)” value is given as 0.0%; the “Area (%) 24 h, assignment Unmodified LdtMt2” value was 0.0%. For the same compound, the “kchem” value in data set [3] is under 0.8 M⁻¹ s⁻¹.
Regarding `O=C1C2(CCCC13OC3c1ccccc1)OC2c1ccccc1` (stereo not shown) [DEK 10], on LdtMt2 [1], the “inhibition of LdtMt2 in the kinact/KI determination (in words)” value was “no evidence for inhibition” and the “kinact/KI LdtMt2” value is under 10.0 M⁻¹ s⁻¹. At LdtMt2 [2], the “Area (%) 15 min … (2)” value was 0.0%; the “Area (%) 15 min, assignment Unmodified LdtMt2” value is recorded as 100.0%; the “Area (%) 24 h … (2)” value stood at 9.8%; the “Area (%) 24 h, assignment Unmodified LdtMt2” value turned out to be 90.2%. Moreover, the “pIC50 LdtMt2” value at LdtMt2 [4] is under 4.4. Also, the “kchem” value in data set [3] is under 0.8 M⁻¹ s⁻¹.
Take `O=C1C2(CCCCC13OC3c1ccccc1)OC2c1ccccc1` (stereo not shown) [DEK 11]: at LdtMt2 [2], the “Area (%) 15 min, assignment Unmodified LdtMt2” value was found to be 100.0% and the “Area (%) 24 h, assignment Unmodified LdtMt2” value turned out to be 100.0%. In addition, the “pIC50 LdtMt2” value against LdtMt2 [4] was under 4.4.
